The text below walks through data of US10525041B2, “Fluoroalkyl-substituted aryltriazole derivatives and uses thereof” (BAYER PHARMA AKTIENGESELLSCHAFT, priority 2016, dated 2020).

Assay [1] addresses T1, human V1a receptor (Homo sapiens, UniProt P37288).
T1 construct: expressed in transfected cells; host or cells: CHO K1 (ATCC), also stably transfected with a modified aequorin
Put plainly: Cellular in vitro assay for vasopressin receptor activity, V1a cell line (aequorin luminescence). It is filed as cell-based. The settings on record: for IC50: CHO cell line transfected with human V1a receptor, agonist [Arg8]-vasopressin at EC50 concentration, read-out: IC50hV1a; for ratio IC50 hV2/hV1a: ratio of the IC50 on human V2 to the IC50 on human V1a. The method, then:
(§1) B-1. Cellular In Vitro Assay for Determining Vasopressin Receptor Activity
(§2) The identification of agonists and antagonists of the V1a and V2 vasopressin receptors from humans, rats and dogs as well as the quantification of the activity of the compounds of the invention is carried out using recombinant cell lines. These cell lines originally derive from a hamster's ovary epithelial cell (Chinese Hamster Ovary, CHO K1, ATCC: American Type Culture Collection, Manassas, Va. 20108, USA). The test cell lines constitutively express the human, rat or dog V1a or V2 receptors. In case of the Gαq-coupled V1a receptors, cells are also stably transfected with a modified form of the calcium-sensitive photoproteins aequorin (human and rat V1a) or obelin (dog V1a), which, after reconstitution with the cofactor coelenterazine, emit light when there are increases in free calcium concentrations [Rizzuto R, Simpson A W, Brini M, Pozzan T, Nature 358, 325-327 (1992); Illarionov B A, Bondar V S, Illarionova V A, Vysotski E S, Gene 153 (2), 273-274 (1995)]. The resulting vasopressin receptor cells react to stimulation of the recombinantly expressed V1a receptors by intracellular release of calcium ions, which can be quantified by the resulting photoprotein luminescence. The Gs-coupled V2 receptors are stably transfected into cell lines expressing the gene for firefly luciferase under control of a CRE-responsible promoter. Activation of V2 receptors induces the activation of the CRE-responsive promoter via cAMP increase, thereby inducing the expression of firefly luciferase. The light emitted by photoproteins of V1a cell lines as well as the light emitted by firefly luciferase of V2 cell lines corresponds to the activation or inhibition of the respective vasopressin receptor. The bioluminescence of the cell lines is detected using a suitable luminometer [Milligan G, Marshall F, Rees S, Trends in Pharmacological Sciences 17, 235-237 (1996)].
Vasopressin V1a Receptor Cell Lines:
On the day before the assay, the cells are plated out in culture medium (DMEM/F12, 2% FCS, 2 mM glutamine, 10 mM HEPES, 5 μg/ml coelenterazine) in 384-well microtiter plates and kept in a cell incubator (96% humidity, 5% v/v CO2, 37° C.). On the day of the assay, test compounds in various concentrations are placed for 10 minutes in the wells of the microtiter plate before the agonist [Arg^8]-vasopressin at EC50 concentration is added. The resulting light signal is measured immediately in a luminometer.
(§3) Table 1A below lists individual IC50 values for the compounds of the invention (including racemic mixtures as well as separated enantiomers) that were obtained from cell lines transfected with the human V1a or V2 receptor: […]

For assay [2], the target named is T2, human V2 receptor (Homo sapiens, UniProt P30518).
T2 construct: expressed in transfected cells; host or cells: CHO K1 (ATCC) line expressing firefly luciferase under a CRE-responsive promoter
T2 sequence (P30518 whole entry): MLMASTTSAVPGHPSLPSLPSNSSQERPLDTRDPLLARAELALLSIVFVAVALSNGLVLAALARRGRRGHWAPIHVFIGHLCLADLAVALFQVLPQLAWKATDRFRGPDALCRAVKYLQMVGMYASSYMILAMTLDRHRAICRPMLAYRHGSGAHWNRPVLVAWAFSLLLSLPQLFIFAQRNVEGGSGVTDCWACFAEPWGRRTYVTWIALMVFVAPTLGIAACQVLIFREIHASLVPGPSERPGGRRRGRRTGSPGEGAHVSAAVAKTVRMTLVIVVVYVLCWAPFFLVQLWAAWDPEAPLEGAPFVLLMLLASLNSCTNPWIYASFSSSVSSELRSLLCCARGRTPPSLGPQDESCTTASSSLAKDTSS
Put plainly: Cellular in vitro assay for vasopressin receptor activity, V2 cell line (CRE-luciferase). It counts as cell-based. The settings on record: CHO cell line transfected with human V2 receptor; agonist [Arg8]-vasopressin at EC50 concentration, 3 hours; read-out: IC50hV2. The method, then: as §1, §2
Vasopressin V2 Receptor Cell Lines:
On the day before the assay, the cells are plated out in culture medium (DMEM/F12, 2% FCS, 2 mM glutamine, 10 mM HEPES) in 384-well microtiter plates and kept in a cell incubator (96% humidity, 5% v/v CO2, 37° C.). On the day of the assay, test compounds in various concentrations and the agonist [Arg^8]-vasopressin at EC50 concentration are added together to the wells, and plates are incubated for 3 hours in a cell incubator. Upon addition of the cell lysis reagent Triton™ and the substrate luciferin, luminescence of firefly luciferase is measured in a luminometer.
as §3

The structures appear in SMILES notation.

T1 sequence (P37288 whole entry): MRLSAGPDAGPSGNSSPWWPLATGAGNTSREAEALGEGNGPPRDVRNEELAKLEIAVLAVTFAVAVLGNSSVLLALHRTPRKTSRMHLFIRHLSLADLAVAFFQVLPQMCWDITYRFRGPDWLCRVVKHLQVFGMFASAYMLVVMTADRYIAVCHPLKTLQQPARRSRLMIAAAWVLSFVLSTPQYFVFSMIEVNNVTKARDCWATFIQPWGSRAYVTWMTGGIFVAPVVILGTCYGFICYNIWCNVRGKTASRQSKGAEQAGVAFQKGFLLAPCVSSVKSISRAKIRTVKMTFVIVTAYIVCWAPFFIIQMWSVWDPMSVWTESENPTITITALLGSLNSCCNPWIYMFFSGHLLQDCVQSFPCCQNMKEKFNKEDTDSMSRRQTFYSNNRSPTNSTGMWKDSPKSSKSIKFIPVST

On to `CC(F)c1nc(Cn2nc(-c3ccc(Cl)cc3)n(C[C@H](O)C(F)(F)F)c2=O)nn1-c1c(F)cccc1Cl` (mixture of isomers) [Example 44, 2-({1-(2-chloro-6-fluorophenyl)-5-[1-fluoroethyl]-1H-1,2,4-triazol-3-yl}methyl)-5-(4-Chlorophenyl)-4-[(2S)-3,3,3-trifluoro-2-hydroxypropyl]-2,4-dihydro-3H-1,2,4-triazol-3-one], for which, in assay [1], the IC50 came out at 1.04 nM and the “ratio IC50 hV2/hV1a” value is on record as 2.8. Further, the IC50 in assay [2] was 2.93 nM.

Take `CC(F)c1nc(Cn2nc(-c3ccc(Cl)cc3)n(C[C@H](O)C(F)(F)F)c2=O)nn1-c1c(F)cccc1F` (mixture of isomers) [Example 45, 5-(4-Chlorophenyl)-2-({1-(2,6-difluorophenyl)-5-[1-fluoroethyl]-1H-1,2,4-triazol-3-yl}methyl)-4-[(2S)-3,3,3-trifluoro-2-hydroxypropyl]-2,4-dihydro-3H-1,2,4-triazol-3-one]: in assay [1], the IC50 is 2.2 nM and the “ratio IC50 hV2/hV1a” value was found to be 1.3. The IC50 in assay [2] is 2.97 nM.

With `Cc1cccc(C)c1-n1nc(Cn2nc(-c3ccc(Cl)cc3)n(C[C@H](O)C(F)(F)F)c2=O)nc1C(C)F` (mixture of isomers) [Example 46, 5-(4-Chlorophenyl)-2-({1-(2,6-dimethylphenyl)-5-[1-fluoroethyl]-1H-1,2,4-triazol-3-yl}methyl)-4-[(2S)-3,3,3-trifluoro-2-hydroxypropyl]-2,4-dihydro-3H-1,2,4-triazol-3-one], in assay [1], the IC50 was 3.2 nM and the “ratio IC50 hV2/hV1a” value is on record as 0.5. The IC50 in assay [2] is 1.74 nM.

On to `CC(C)c1ccccc1-n1nc(Cn2nc(-c3ccc(Cl)cc3)n(C[C@H](O)C(F)(F)F)c2=O)nc1C(C)F` (mixture of isomers) [Example 47, 5-(4-Chlorophenyl)-2-({5-[1-fluoroethyl]-1-[2-(propan-2-yl)phenyl]-1H-1,2,4-triazol-3-yl}methyl)-4-[(2S)-3,3,3-trifluoro-2-hydroxypropyl]-2,4-dihydro-3H-1,2,4-triazol-3-one], for which, in assay [1], the IC50 worked out at 30 nM and the “ratio IC50 hV2/hV1a” value amounted to 1.2. For the same compound, the IC50 in assay [2] was 35 nM.

For `CCc1cccc(C)c1-n1nc(Cn2nc(-c3ccc(Cl)cc3)n(C[C@H](O)C(F)(F)F)c2=O)nc1C(C)F` (mixture of isomers) [Example 48, 5-(4-Chlorophenyl)-2-({1-(2-ethyl-6-methylphenyl)-5-[1-fluoroethyl]-1H-1,2,4-triazol-3-yl}methyl)-4-[(2S)-3,3,3-trifluoro-2-hydroxypropyl]-2,4-dihydro-3H-1,2,4-triazol-3-one], the IC50 in assay [1] was 30.5 nM; in assay [2], 4.9 nM. Moreover, the “ratio IC50 hV2/hV1a” value in assay [1] was 0.2.

As to `CSc1ccccc1-n1nc(Cn2nc(-c3ccc(Cl)cc3)n(C[C@H](O)C(F)(F)F)c2=O)nc1C(C)F` (mixture of isomers) [Example 49, 5-(4-Chlorophenyl)-2-({5-[1-fluoroethyl]-1-[2-(methylsulfanyl)phenyl]-1H-1,2,4-triazol-3-yl}methyl)-4-[(2S)-3,3,3-trifluoro-2-hydroxypropyl]-2,4-dihydro-3H-1,2,4-triazol-3-one], in assay [1], the IC50 stood at 0.85 nM and the “ratio IC50 hV2/hV1a” value turned out to be 0.5. Besides, in assay [2], the IC50 turned out to be 0.45 nM.

On to `CC(F)c1nc(Cn2nc(-c3ccc(Cl)cc3)n(C[C@H](O)C(F)(F)F)c2=O)nn1-c1ccccc1Cl` (single isomer, unassigned) [Example 2], for which, in assay [1], the IC50 came out at 0.36 nM and the “ratio IC50 hV2/hV1a” value came out at 3.8. In assay [2], the IC50 is 1.34 nM.

As for `CC(F)c1nc(Cn2nc(-c3ccc(Cl)cc3)n(C[C@H](O)C(F)(F)F)c2=O)nn1-c1ccccc1Cl` (single isomer, unassigned) [Example 3], in assay [1], the IC50 amounted to 0.9 nM and the “ratio IC50 hV2/hV1a” value amounted to 1.0. The IC50 in assay [2] was 0.93 nM.

`CC(F)c1nc(Cn2nc(-c3ccc(Cl)cc3)n(C[C@H](O)C(F)(F)F)c2=O)nn1-c1cnccc1Cl` (single isomer, unassigned) [Example 5]: in assay [1], the IC50 was 6.95 nM and the “ratio IC50 hV2/hV1a” value was 10.8. The IC50 in assay [2] stood at 74.8 nM.

As for `CC(F)c1nc(Cn2nc(-c3ccc(Cl)cc3)n(C[C@H](O)C(F)(F)F)c2=O)nn1-c1cnccc1Cl` (single isomer, unassigned) [Example 6], in assay [1], the IC50 was 0.48 nM and the “ratio IC50 hV2/hV1a” value turned out to be 5.0. For the same compound, in assay [2], the IC50 amounted to 2.37 nM.

`CC(F)c1nc(Cn2nc(-c3ccc(Cl)cc3)n(C[C@H](O)C(F)(F)F)c2=O)nn1-c1cnccc1C(F)(F)F` (single isomer, unassigned) [Example 8]: in assay [1], the IC50 came out at 1.25 nM and the “ratio IC50 hV2/hV1a” value is on record as 15.8. For the same compound, in assay [2], the IC50 came to 19.8 nM.

Consider `CC(F)c1nc(Cn2nc(-c3ccc(Cl)cc3)n(C[C@H](O)C(F)(F)F)c2=O)nn1-c1cnccc1C(F)(F)F` (single isomer, unassigned) [Example 9], for which, in assay [1], the IC50 turned out to be 1 nM and the “ratio IC50 hV2/hV1a” value came to 7.1. Besides, in assay [2], the IC50 amounted to 7.05 nM.

Turning to `CC(F)c1nc(Cn2nc(-c3ccc(Cl)cc3)n(C[C@H](O)C(F)(F)F)c2=O)nn1-c1ncccc1C(F)(F)F` (single isomer, unassigned) [Example 11], in assay [1], the IC50 is 13.5 nM and the “ratio IC50 hV2/hV1a” value was found to be 5.5. Also, in assay [2], the IC50 was found to be 73.8 nM.

For `CC(F)c1nc(Cn2nc(-c3ccc(Cl)cc3)n(C[C@H](O)C(F)(F)F)c2=O)nn1-c1ncccc1C(F)(F)F` (single isomer, unassigned) [Example 12], in assay [1], the IC50 was determined as 3.8 nM and the “ratio IC50 hV2/hV1a” value came to 5.9. In addition, the IC50 in assay [2] worked out at 22.5 nM.

`CC(F)c1nc(Cn2nc(-c3ccc(Cl)cc3)n(C[C@H](O)C(F)(F)F)c2=O)nn1-c1cccc(F)c1` (single isomer, unassigned) [Example 14]: in assay [1], the IC50 is 9.7 nM and the “ratio IC50 hV2/hV1a” value is given as 0.2. In assay [2], the IC50 was found to be 1.73 nM.

Regarding `CC(F)c1nc(Cn2nc(-c3ccc(Cl)cc3)n(C[C@H](O)C(F)(F)F)c2=O)nn1-c1cccc(F)c1` (single isomer, unassigned) [Example 15], in assay [1], the IC50 worked out at 12.5 nM and the “ratio IC50 hV2/hV1a” value was found to be 0.6. For the same compound, the IC50 in assay [2] was 7.85 nM.

In the case of `CC(F)c1nc(Cn2nc(-c3ccc(Cl)cc3)n(C[C@H](O)C(F)(F)F)c2=O)nn1-c1cccc(Cl)c1` (single isomer, unassigned) [Example 17], the IC50 in assay [1] worked out at 9.25 nM; in assay [2], 0.25 nM. Also, the “ratio IC50 hV2/hV1a” value in assay [1] was 0.0.

Take `CC(F)c1nc(Cn2nc(-c3ccc(Cl)cc3)n(C[C@H](O)C(F)(F)F)c2=O)nn1-c1cccc(Cl)c1` (single isomer, unassigned) [Example 18]: the IC50 came to 60 nM in assay [1] and 3.85 nM in assay [2]. Moreover, the “ratio IC50 hV2/hV1a” value in assay [1] worked out at 0.1.

For the compound `CC(F)c1nc(Cn2nc(-c3ccc(Cl)cc3)n(C[C@H](O)C(F)(F)F)c2=O)nn1-c1ncccc1Cl` (single isomer, unassigned) [Example 20], in assay [1], the IC50 stood at 1.35 nM and the “ratio IC50 hV2/hV1a” value was determined as 4.4. Further, the IC50 in assay [2] was determined as 5.95 nM.

Consider `CC(F)c1nc(Cn2nc(-c3ccc(Cl)cc3)n(C[C@H](O)C(F)(F)F)c2=O)nn1-c1ncccc1Cl` (single isomer, unassigned) [Example 21], for which, in assay [1], the IC50 was determined as 1.55 nM and the “ratio IC50 hV2/hV1a” value stood at 8.1. Besides, the IC50 in assay [2] amounted to 12.5 nM.
